This note sets out measurements from patent US12421282B2, “Compositions and methods for the treatment of metabolic and liver disorders” (priority 2021, dated 2025).

Structures are written as SMILES. Read-outs that look alike come from different tables or passages of the source. *1 amine or outer side, *2 acyl side, *3 side chain or, on linkers, in order; H or OH if unused. Where a SMILES comes first, the peptide text is derived from it. Side-chain parts run from the residue outwards. [ ]: non-standard residue; d: D form. The star is where a group is joined. Nonadecanoyl(19-PO3H2) = O=C(CCCCCCCCCCCCCCCCCCP(=O)(O)O)*; γGlu = O=C(O)[C@H](CCC(=O)[*:2])N[*:1]; AEEA = NCCOCCOCC(=O)O; Aib = CC(C)(N)C(=O)O

Data set [1] addresses T1, human recombinant GIP receptor (Homo sapiens, UniProt P48546).
T1 sequence (P48546 22-466): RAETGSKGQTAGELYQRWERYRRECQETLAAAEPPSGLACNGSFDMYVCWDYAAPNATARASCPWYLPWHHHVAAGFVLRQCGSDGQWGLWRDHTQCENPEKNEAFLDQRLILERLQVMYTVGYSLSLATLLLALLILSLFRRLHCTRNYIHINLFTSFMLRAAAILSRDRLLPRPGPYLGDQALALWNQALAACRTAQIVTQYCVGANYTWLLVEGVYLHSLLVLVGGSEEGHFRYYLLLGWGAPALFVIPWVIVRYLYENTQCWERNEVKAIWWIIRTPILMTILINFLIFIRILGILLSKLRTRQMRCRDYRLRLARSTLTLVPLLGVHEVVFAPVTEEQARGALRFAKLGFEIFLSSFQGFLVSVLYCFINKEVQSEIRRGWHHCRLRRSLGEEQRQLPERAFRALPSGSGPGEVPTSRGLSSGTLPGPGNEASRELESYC
The data set is described as follows: TagLite binding assay, GIP receptor, without and with 2% HSA.

On the set-up of data set [2]: species or system cynomolgus monkeys. Conditions: cynomolgus monkey, in vivo, sc, 0.2 mg/kg. On the procedure: Subcutaneous (SC) dosing of the compounds in a vehicle of 0.1% bovine serum albumin in phosphate buffered saline solution was performed with male cynomolgus monkeys. […] Samples were obtained at 1, 4, 8, 12, 24, 48, 72, 96, 120, 168, 192, 240 and 336 hours after the single dose was administered.

The target of data set [3] is human recombinant GLP-1 receptor (Homo sapiens, UniProt P43220). The data set is described as follows: TagLite binding assay, GLP-1 receptor, without and with 2% HSA.
Chain of human recombinant GLP-1 receptor (P43220 24-463): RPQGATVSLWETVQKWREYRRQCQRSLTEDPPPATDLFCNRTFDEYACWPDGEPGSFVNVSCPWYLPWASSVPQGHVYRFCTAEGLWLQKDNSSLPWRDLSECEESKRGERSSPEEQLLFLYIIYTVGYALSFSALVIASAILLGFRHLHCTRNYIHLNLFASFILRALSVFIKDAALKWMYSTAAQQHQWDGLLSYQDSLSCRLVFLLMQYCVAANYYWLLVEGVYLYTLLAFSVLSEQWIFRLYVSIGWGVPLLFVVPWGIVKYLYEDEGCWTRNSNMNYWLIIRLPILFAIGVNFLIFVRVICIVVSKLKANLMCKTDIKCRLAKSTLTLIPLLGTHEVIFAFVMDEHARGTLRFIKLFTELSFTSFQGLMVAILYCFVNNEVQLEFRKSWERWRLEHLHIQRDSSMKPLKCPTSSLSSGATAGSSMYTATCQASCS

By IC50 is commonly meant the concentration that inhibits the measured activity by half. Usually AUC(0-inf) stands for the area under the concentration-time curve extrapolated to infinity. The term AUC(0-t) denotes exposure summed from dosing to a finite time, without extrapolation to infinity. The Cmax is the highest concentration seen after dosing. As usually defined, the Tmax is the time from dosing to the highest level. Broadly, the half-life is the time in which the quantity being followed falls by half. With `CC[C@H](C)[C@H](NC(=O)[C@H](CC(C)C)NC(=O)[C@H](Cc1c[nH]c2ccccc12)NC(=O)[C@H](CCC(N)=O)NC(=O)[C@@H](NC(=O)[C@H](Cc1ccccc1)NC(=O)[C@H](C)NC(=O)[C@H](CCCCNC(=O)COCCOCCNC(=O)COCCOCCNC(=O)CC[C@H](NC(=O)CCCCCCCCCCCCCCCCCCP(=O)(O)O)C(=O)O)NC(=O)[C@H](CCC(N)=O)NC(=O)[C@H](C)NC(=O)[C@@H](NC(=O)[C@H](CCCCN)NC(=O)[C@H](CC(=O)O)NC(=O)[C@H](CC(C)C)NC(=O)C(C)(C)NC(=O)[C@@H](NC(=O)[C@H](CO)NC(=O)[C@H](Cc1ccc(O)cc1)NC(=O)[C@H](CC(=O)O)NC(=O)[C@H](CO)NC(=O)[C@@H](NC(=O)[C@H](Cc1ccccc1)NC(=O)[C@@H](NC(=O)CNC(=O)[C@H](CCC(=O)O)NC(=O)C(C)(C)NC(=O)[C@@H](N)Cc1ccc(O)cc1)[C@@H](C)O)[C@@H](C)O)[C@@H](C)CC)C(C)C)C(C)C)C(=O)N[C@@H](C)C(=O)NCC(=O)NCC(=O)N1CCC[C@H]1C(=O)N[C@@H](CO)C(=O)N[C@@H](CO)C(=O)NCC(=O)N[C@@H](C)C(=O)N1CCC[C@H]1C(=O)N1CCC[C@H]1C(=O)N1CCC[C@H]1C(=O)N[C@@H](CO)C(N)=O` [Compound 17] (H-Y[Aib]EGTFTSDYSI[Aib]LDKVAQK([AEEA-AEEA-γGlu-Nonadecanoyl(19-PO3H2)])AFVQWLIAGGPSSGAPPPS-NH2), the IC50 in data set [1] (2% human serum albumin, read-out: GIP receptor IC50 2% HSA) was 4170 nM. Moreover, the IC50 in data set [1] (no HSA, read-out: GIP receptor IC50 No HSA) is 543 nM. In data set [2], the area under the curve AUC(0-inf) came out at 286 µg·h/mL, the AUC(0-t) stood at 254 µg·h/mL, the Cmax is 2300 ng/mL and the Tmax amounted to 6.67 h. For the same compound, in data set [2], the half-life is 102 h and the “mean half life longer compared to tirzepatide” value was “at least 50%”. The IC50 in data set [3] (2% human serum albumin, read-out: GLP-1 receptor IC50 2% HSA) worked out at 3740 nM. The IC50 in data set [3] (no HSA, read-out: GLP-1 receptor IC50 No HSA) came to 316 nM.
